Patent US12685312B2, “Sulfonamide apyrase inhibitors” (Texas Crop Science, Inc., priority 2022, dated 2026)

Test system: apyrase
Experiment: Screen for apyrase inhibitors (Method 1, in vitro phosphate-release absorbance assay)
Format: biochemical
Conditions: inhibitor conc at 1 mM stock, 1 hr room temperature, absorbance 630 nm; rounded average of two assay results
Procedure, shortened: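 Phosphate-release colorimetric assay (Windsor method) in 60 mM Hepes, 3 mM MgCl2, 3 mM CaCl2, 3 mM ATP, pH 6.5, with compound or DMSO control added. Released phosphate developed with ammonium molybdate and ascorbic acid/TCA, then stopped with citrate/acetic acid.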

Point of comparison: `CC(=O)c1ccccc1NC(=O)c1cccc(S(=O)(=O)N2c3ccccc3CC2C)c1` (centres unmarked) [I-610, N-(2-acetylphenyl)-3-((2-methylindolin-1-yl)sulfonyl)benzamide], “% Inhibition of Apyrase” value 4%. Against it:
- CC(=O)NS(=O)(=O)c1ccc(NC(=O)c2cccc(S(=O)(=O)N3CCc4ccccc43)c2)cc1 [I-608, N-(4-(N-acetylsulfamoyl)phenyl)-3-(indolin-1-ylsulfonyl)benzamide] — higher, 14%
- O=C(Nc1ccc2c(c1)OCCCO2)c1cccc(S(=O)(=O)N2CCc3ccccc32)c1 [I-609, N-(3,4-dihydro-2H-benzo[b][1,4]dioxepin-7-yl)-3-(indolin-1-ylsulfonyl)benzamide] — higher, 13%
- Cc1ccc(S(=O)(=O)Nc2ccccc2F)cc1C(=O)Nc1ccc(F)cc1F [I-611, N-(2,4-difluorophenyl)-5-(N-(2-fluorophenyl)sulfamoyl)-2-methylbenzamide] — the same, 4%
- COc1ccc(NC(=O)c2cccc(S(=O)(=O)Nc3cccc(Cl)c3)c2)cn1 [I-612, 3-(N-(3-chlorophenyl)sulfamoyl)-N-(6-methoxypyridin-3-yl)benzamide] — the same, 4%
- Cc1ccc(NC(=O)c2cccc(S(=O)(=O)Nc3ccccc3F)c2)c(F)c1 [I-613, N-(2-fluoro-4-methylphenyl)-3-(N-(2-fluorophenyl)sulfamoyl)benzamide] — lower, 3%
- CCOc1ccc(NS(=O)(=O)c2cccc(C(=O)Nc3ccc(OC)cc3)c2)cc1 [I-614, 3-(N-(4-ethoxyphenyl)sulfamoyl)-N-(4-methoxyphenyl)benzamide] — lower, 1%
- O=C(Nc1ccccn1)c1cccc(S(=O)(=O)Nc2cccc(Cl)c2)c1 [I-615, 3-(N-(3-chlorophenyl)sulfamoyl)-N-(pyridin-2-yl)benzamide] — lower, 1%
- O=C(Nc1ccccn1)c1cccc(NS(=O)(=O)c2ccc(Br)cc2)c1 [I-627, 3-((4-bromophenyl)sulfonamido)-N-(pyridin-2-yl)benzamide] — higher, 71%
- Cc1cc(NC(=O)c2cccc(NS(=O)(=O)c3ccc4c(c3)OCCO4)c2)no1 [I-628, 3-((2,3-dihydrobenzo[b][1,4]dioxine)-6-sulfonamido)-N-(5-methylisoxazol-3-yl)benzamide] — higher, 68%
- O=C(Nc1cccnc1)c1cccc(NS(=O)(=O)c2ccc3c(c2)OCCCO3)c1 [I-629, 3-((3,4-dihydro-2H-benzo[b][1,4]dioxepine)-7-sulfonamido)-N-(pyridin-3-yl)benzamide] — higher, 67%
- O=C(Nc1cccc2cccnc12)c1cccc(NS(=O)(=O)c2cccs2)c1 [I-630, N-(quinolin-8-yl)-3-(thiophene-2-sulfonamido)benzamide] — higher, 66%
- O=C(Nc1cccc(Cl)c1)c1cccc(NS(=O)(=O)c2cccs2)c1 [I-631, N-(3-chlorophenyl)-3-(thiophene-2-sulfonamido)benzamide] — higher, 62%
- O=C(Nc1ccc2c(c1)CCC2)c1cccc(NS(=O)(=O)c2cccs2)c1 [I-632, N-(2,3-dihydro-1H-inden-5-yl)-3-(thiophene-2-sulfonamido)benzamide] — higher, 62%
- Cc1cnc(NC(=O)c2cccc(NS(=O)(=O)c3ccc(Cl)c(Cl)c3)c2)[nH]1 [I-633, 3-((3,4-dichlorophenyl)sulfonamido)-N-(5-methyl-1H-imidazol-2-yl)benzamide] — higher, 60%
- O=C(Nc1cccc(C(F)(F)F)c1)c1cccc(NS(=O)(=O)c2ccc(Cl)s2)c1 [I-634, 3-((5-chlorothiophene)-2-sulfonamido)-N-(3-(trifluoromethyl)phenyl)benzamide] — higher, 59%
- O=C(Nc1nc2ccccc2[nH]1)c1cccc(NS(=O)(=O)c2ccc3c(c2)OCCCO3)c1 [I-635, N-(1H-benzo[d]imidazol-2-yl)-3-((3,4-dihydro-2H-benzo[b][1,4]dioxepine)-7-sulfonamido)benzamide] — higher, 58%
- Cc1ccc(NC(=O)c2cccc(NS(=O)(=O)c3cccs3)c2)cc1C [I-636, N-(3,4-dimethylphenyl)-3-(thiophene-2-sulfonamido)benzamide] — higher, 58%
- O=C(Nc1nc2c(s1)CCC2)c1cccc(NS(=O)(=O)c2ccc3c(c2)OCCO3)c1 [I-637, N-(5,6-dihydro-4H-cyclopenta[d]thiazol-2-yl)-3-((2,3-dihydrobenzo[b][1,4]dioxine)-6-sulfonamido)benzamide] — higher, 57%
- O=C(Nc1cccc2ncccc12)c1cccc(NS(=O)(=O)c2cccs2)c1 [I-638, N-(quinolin-5-yl)-3-(thiophene-2-sulfonamido)benzamide] — higher, 57%
- O=C(Nc1nccs1)c1cccc(NS(=O)(=O)c2cc(Cl)ccc2Cl)c1 [I-639, 3-((2,5-dichlorophenyl)sulfonamido)-N-(thiazol-2-yl)benzamide] — higher, 56%
- CCOc1ccc(S(=O)(=O)Nc2cccc(C(=O)Nc3ccc(C)cn3)c2)cc1 [I-640, 3-((4-ethoxyphenyl)sulfonamido)-N-(5-methylpyridin-2-yl)benzamide] — higher, 56%
- Cc1ccc(C)c(S(=O)(=O)Nc2cccc(C(=O)Nc3ccc(F)cn3)c2)c1 [I-641, 3-((2,5-dimethylphenyl)sulfonamido)-N-(5-fluoropyridin-2-yl)benzamide] — higher, 55%
- O=C(Nc1cccc(C(F)(F)F)c1)c1cccc(NS(=O)(=O)c2cccs2)c1 [I-642, 3-(thiophene-2-sulfonamido)-N-(3-(trifluoromethyl)phenyl)benzamide] — higher, 55%
- O=C(Nc1cccc(C(F)(F)F)c1)c1cccc(NS(=O)(=O)c2ccc(Cl)nc2)c1 [I-643, 3-((6-chloropyridine)-3-sulfonamido)-N-(3-(trifluoromethyl)phenyl)benzamide] — higher, 55%
- O=C(Nc1nccs1)c1cccc(NS(=O)(=O)c2ccc3c(c2)OCCCO3)c1 [I-644, 3-((3,4-dihydro-2H-benzo[b][1,4]dioxepine)-7-sulfonamido)-N-(thiazol-2-yl)benzamide] — higher, 54%
- COc1ccc(NC(=O)c2cccc(NS(=O)(=O)c3ccc(Br)cc3)c2)cn1 [I-645, 3-((4-bromophenyl)sulfonamido)-N-(6-methoxypyridin-3-yl)benzamide] — higher, 54%
- Cc1ccc(NC(=O)c2cccc(NS(=O)(=O)c3ccc(Br)cc3)c2)nc1 [I-646, 3-((4-bromophenyl)sulfonamido)-N-(5-methylpyridin-2-yl)benzamide] — higher, 54%
- CCCCc1nnc(NC(=O)c2cccc(NS(=O)(=O)c3ccc(C)c(F)c3)c2)s1 [I-647, N-(5-butyl-1,3,4-thiadiazol-2-yl)-3-((3-fluoro-4-methylphenyl)sulfonamido)benzamide] — higher, 53%
- O=C(Nc1cccnc1)c1cccc(NS(=O)(=O)c2ccc(Br)cc2)c1 [I-648, 3-((4-bromophenyl)sulfonamido)-N-(pyridin-3-yl)benzamide] — higher, 51%
- Cc1ccc(S(=O)(=O)Nc2cccc(C(=O)Nc3nc4ccccc4[nH]3)c2)cc1F [I-649, N-(1H-benzo[d]imidazol-2-yl)-3-((3-fluoro-4-methylphenyl)sulfonamido)benzamide] — higher, 50%
- Cc1csc(NC(=O)c2cccc(NS(=O)(=O)c3ccc4c(c3)OCCCO4)c2)n1 [I-650, 3-((3,4-dihydro-2H-benzo[b][1,4]dioxepine)-7-sulfonamido)-N-(4-methylthiazol-2-yl)benzamide] — higher, 50%
